Like-named read-outs stand apart in the source and are kept apart here.
Key:
Mcl-1 protein = Mcl-1 protein (UniProtKB primary accession number: Q07820) (Homo sapiens, UniProt Q07820); experiment: Inhibition of Mcl-1 by fluorescence polarisation, Method 1; assay type: binding; conditions: read-out: IC50 (M) Mcl-1 FP
Method in brief: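 Compounds were tested as 11-point serial dilutions at 5% final DMSO against 5 nM Mcl-1 with 1 nM fluorescein-labelled ligand in 10 mM HEPES, 150 mM NaCl, 0.05% Tween 20, pH 7.4. Relative binding potency was read by fluorescence polarisation.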

[1] = test system: H929 multiple myeloma tumour line; experiment: In vitro cytotoxicity, Microculture Tetrazolium Assay; assay type: cell-based; conditions: Homo sapiens, NCI-H929, 48 h
Description: The cytotoxicity studies were carried out on the H929 multiple myeloma tumour line.
The cells are distributed onto microplates and exposed to the test compounds for 48 hours.

[2] = fluorescence polarisation test, Method 2 values are underlined in the patent (underlining not visible here)
[3] = H929 cells, 48 hours exposure, MTT, read-out: IC50 (μM) MTT H929
[4] = fluorescence polarisation, Method 1, or Method 2

Mcl-1 protein, sequence (Q07820 whole entry): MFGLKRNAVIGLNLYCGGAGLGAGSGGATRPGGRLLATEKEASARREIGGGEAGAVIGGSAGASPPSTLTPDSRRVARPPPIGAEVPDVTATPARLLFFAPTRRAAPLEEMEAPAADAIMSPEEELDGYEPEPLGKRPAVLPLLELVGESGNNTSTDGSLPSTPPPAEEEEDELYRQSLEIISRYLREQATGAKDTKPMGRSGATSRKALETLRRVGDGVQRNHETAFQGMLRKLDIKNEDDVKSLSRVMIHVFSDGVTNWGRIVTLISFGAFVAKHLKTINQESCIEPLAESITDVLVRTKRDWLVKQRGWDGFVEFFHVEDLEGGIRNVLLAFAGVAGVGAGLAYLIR

Row | Compound | IC50 (Mcl-1 protein; [2]) | IC50 [1, 3] | IC50 (Mcl-1 protein; [4]) | IC50 ([1]; read-out: IC50 (μM) MTT H929, H929 cells, 48 hours exposure, MTT)
1 | Cc1cc(COc2ccccc2CC(Oc2ncnc3sc(-c4ccc(F)cc4)c(-c4ccc(OCCN5CCN(C)CC5)c(Cl)c4C)c23)C(=O)O)no1 [Example 9, (2R)-2-{[(5Sa)-5-{3-chloro-2-methyl-4-[2-(4-methylpiperazin-1-yl)ethoxy]phenyl}-6-(4-fluorophenyl)thieno[2,3-d]pyrimidin-4-yl]oxy}-3-{2-[(5-methyl-1,2-oxazol-3-yl)methoxy]phenyl}propanoic acid] | 9.3e-09 M | 0.363 µM | – | –
2 | Cc1c(-c2c(-c3ccco3)sc3ncnc(OC(Cc4ccccc4OCc4cnccn4)C(=O)O)c23)ccc(OCCN2CCN(C)CC2)c1Cl [Example 275, (2R)-2-{[(5Sa)-5-{3-chloro-2-methyl-4-[2-(4-methylpiperazin-1-yl)ethoxy]phenyl}-6-(furan-2-yl)thieno[2,3-d]pyrimidin-4-yl]oxy}-3-[2-(pyrazin-2-ylmethoxy)phenyl]propanoic acid] | 4.5e-09 M | 0.051 µM | – | –
3 | CCc1sc2ncnc(OC(Cc3ccccc3)C(=O)O)c2c1-c1cc(Cl)c(OCCN2CCN(C)CC2)c(Cl)c1C [Example 436, (2R)-2-[((5Sa)-5-{3,5-dichloro-2-methyl-4-[2-(4-methylpiperazin-1-yl)ethoxy]phenyl}-6-ethylthieno[2,3-d]pyrimidin-4-yl)oxy]-3-phenylpropanoic acid] | – | 15.1 µM | 2.9e-08 M | –
4 | COc1cc(-c2sc3ncnc(OC(Cc4ccccc4OCc4ccccn4)C(=O)O)c3c2-c2ccc(OCCN3CCN(C)CC3)c(Cl)c2C)ccc1F [Example 381, (2R)-2-{[(5Sa)-5-{3-chloro-2-methyl-4-[2-(4-methylpiperazin-1-yl)ethoxy]phenyl}-6-(4-fluoro-3-methoxyphenyl)thieno[2,3-d]pyrimidin-4-yl]oxy}-3-[2-(pyridin-2-ylmethoxy)phenyl]propanoic acid] | 1.3e-08 M | 0.119 µM | – | –
5 | Cc1c(-c2c(-c3ccc(F)o3)sc3ncnc(OC(Cc4ccccc4OCc4ccnc(-c5ccsc5)n4)C(=O)O)c23)ccc(OCCN2CCN(C)CC2)c1Cl [Example 173, (2R)-2-{[(5Sa)-5-{3-chloro-2-methyl-4-[2-(4-methylpiperazin-1-yl)ethoxy]phenyl}-6-(5-fluorofuran-2-yl)thieno[2,3-d]pyrimidin-4-yl]oxy}-3-(2-{[2-(thiophen-3-yl)pyrimidin-4-yl]methoxy}phenyl)propanoic acid] | 3.1e-09 M | 0.004 µM | – | –
6 | CCc1sc2ncnc(OC(Cc3cccc4ccoc34)C(=O)O)c2c1-c1ccc(OCCN2CCN(C)CC2)c(Cl)c1C [Example 461, (2R)-3-(1-benzofuran-7-yl)-2-[((5Sa)-5-{3-chloro-2-methyl-4-[2-(4-methylpiperazin-1-yl)ethoxy]phenyl}-6-ethylthieno[2,3-d]pyrimidin-4-yl)oxy]propanoic acid] | – | 4.86 µM | 8.5e-08 M | –
7 | Cc1c(-c2c(-c3ccc(F)nc3)sc3ncnc(OC(Cc4ccccc4OCc4ccnn4CC(F)(F)F)C(=O)O)c23)ccc(OCCN2CCN(C)CC2)c1Cl [Example 693, (2R)-2-{[(5Sa)-5-{3-chloro-2-methyl-4-[2-(4-methylpiperazin-1-yl)ethoxy]phenyl}-6-(6-fluoropyridin-3-yl)thieno[2,3-d]pyrimidin-4-yl]oxy}-3-(2-{[1-(2,2,2-trifluoroethyl)-1H-pyrazol-5-yl]methoxy}phenyl)propanoic acid] | – | 0.101 µM | 9.3e-10 M | –
8 | Cc1c(OCCN2CCN(C)CC2)ccc(-c2c(-c3ccco3)sc3ncnc(OC(Cc4ccccc4OCC(F)(F)F)C(=O)O)c23)c1C [Example 673, (2R)-2-[(5Sa)-5-[2,3-dimethyl-4-[2-(4-methylpiperazin-1-yl)ethoxy]phenyl]-6-(2-furyl)thieno[2,3-d]pyrimidin-4-yl]oxy-3-[2-(2,2,2-trifluoroethoxy)phenyl]propanoic acid] | – | 0.576 µM | 1.1e-08 M | –
9 | CCN1CCN(CCOc2ccc(-c3c(-c4ccco4)sc4ncnc(OC(Cc5ccccc5OC)C(=O)O)c34)c(C)c2Cl)CC1 [Example 322, (2R)-2-{[(5Sa)-5-{3-chloro-4-[2-(4-ethylpiperazin-1-yl)ethoxy]-2-methylphenyl}-6-(furan-2-yl)thieno[2,3-d]pyrimidin-4-yl]oxy}-3-(2-methoxyphenyl)propanoic acid] | 4.3e-09 M | 0.113 µM | – | –
10 | Cc1c(-c2c(-c3ccc(F)cc3)sc3ncnc(OC(Cc4ccccc4OCc4ccnc(COc5ccccc5)n4)C(=O)O)c23)ccc(OCCN2CCN(C)CC2)c1Cl [Example 46, (2R)-2-{[(5Sa)-5-{3-chloro-2-methyl-4-[2-(4-methylpiperazin-1-yl)ethoxy]phenyl}-6-(4-fluorophenyl)thieno[2,3-d]pyrimidin-4-yl]oxy}-3-(2-{[2-(phenoxymethyl)pyrimidin-4-yl]methoxy}phenyl)propanoic acid] | 7.3e-09 M | 0.024 µM | – | –
11 | Cc1ccccc1CC(Oc1ncnc2sc(-c3ccco3)c(-c3ccc(OCCN4CCN(C)CC4)c(Cl)c3C)c12)C(=O)O [Example 354, (2R)-2-{[(5Sa)-5-{3-chloro-2-methyl-4-[2-(4-methylpiperazin-1-yl)ethoxy]phenyl}-6-(furan-2-yl)thieno[2,3-d]pyrimidin-4-yl]oxy}-3-(2-methylphenyl)propanoic acid] | 1.1e-08 M | 0.544 µM | – | –
12 | Cc1c(-c2c(-c3ccco3)sc3ncnc(OC(Cc4ccccc4OCC(=O)N(C)C)C(=O)O)c23)ccc(OCCN2CCN(C)CC2)c1Cl [Example 217, (2R)-2-{[(5Sa)-5-{3-chloro-2-methyl-4-[2-(4-methylpiperazin-1-yl)ethoxy]phenyl}-6-(furan-2-yl)thieno[2,3-d]pyrimidin-4-yl]oxy}-3-{2-[2-(dimethylamino)-2-oxoethoxy]phenyl}propanoic acid] | 5.3e-09 M | 1.48 µM | – | –
13 | Cc1c(-c2c(-c3ccc(F)cc3)sc3ncnc(OC(Cc4ccccc4OCc4ccnc(C(C)(C)C)n4)C(=O)O)c23)ccc(OCCN2CCN(C)CC2)c1Cl [Example 23, (2R)-3-{2-[(2-tert-butylpyrimidin-4-yl)methoxy]phenyl}-2-{[(5Sa)-5-{3-chloro-2-methyl-4-[2-(4-methylpiperazin-1-yl)ethoxy]phenyl}-6-(4-fluorophenyl)thieno[2,3-d]pyrimidin-4-yl]oxy}propanoic acid] | 2.4e-08 M | 0.054 µM | – | –
14 | Cc1c(-c2c(-c3ccc(Cl)o3)sc3ncnc(OC(Cc4ccccc4OCc4cnccn4)C(=O)O)c23)ccc(OCCN2CCN(C)CC2)c1Cl [Example 374, (2R)-2-{[6-(5-chlorofuran-2-yl)-(5Sa)-5-{3-chloro-2-methyl-4-[2-(4-methylpiperazin-1-yl)ethoxy]phenyl}thieno[2,3-d]pyrimidin-4-yl]oxy}-3-[2-(pyrazin-2-ylmethoxy)phenyl]propanoic acid] | 9.2e-09 M | 0.038 µM | – | –
15 | Cc1c(-c2c(-c3ccc(F)cc3)sc3ncnc(OC(Cc4ccccc4OCc4ccnn4CC4CCCCC4)C(=O)O)c23)ccc(OCCN2CCN(C)CC2)c1Cl [Example 80, (2R)-2-{[(5Sa)-5-{3-chloro-2-methyl-4-[2-(4-methylpiperazin-1-yl)ethoxy]phenyl}-6-(4-fluorophenyl)thieno[2,3-d]pyrimidin-4-yl]oxy}-3-(2-{[1-(cyclohexylmethyl)-1H-pyrazol-5-yl]methoxy}phenyl)propanoic acid] | 4.5e-09 M | 0.035 µM | – | –
16 | COc1ccccc1C[C@@H](Oc1ncnc2sc(-c3cccc(F)c3F)c(-c3ccc(C#CCN4CCN(C)CC4)c(Cl)c3C)c12)C(=O)O (single isomer, unassigned) [Example 717] | – | – | 2.7e-08 M | 0.865 µM
17 | CC#Cc1sc2ncnc(OC(Cc3ccccc3OCC)C(=O)O)c2c1-c1ccc(OCCN2CCN(C)CC2)c(Cl)c1C [Example 481, (2R)-2-{[(5Sa)-5-{3-chloro-2-methyl-4-[2-(4-methylpiperazin-1-yl)ethoxy]phenyl}-6-(prop-1-yn-1-yl)thieno[2,3-d]pyrimidin-4-yl]oxy}-3-(2-ethoxyphenyl)propanoic acid] | – | 0.643 µM | 5.4e-09 M | –
18 | COCCOCCOCCOc1ccccc1CC(Oc1ncnc2sc(-c3ccc(F)cc3)c(-c3ccc(OCCN4CCN(C)CC4)c(Cl)c3C)c12)C(=O)O [Example 106, (2R)-2-{[(5Sa)-5-{3-chloro-2-methyl-4-[2-(4-methylpiperazin-1-yl)ethoxy]phenyl}-6-(4-fluorophenyl)thieno[2,3-d]pyrimidin-4-yl]oxy}-3-(2-{2-[2-(2-methoxyethoxy)ethoxy]ethoxy}phenyl)propanoic acid] | 1.2e-08 M | 0.195 µM | – | –
19 | CCCCn1nccc1COc1ccccc1CC(Oc1ncnc2sc(-c3ccn(C)n3)c(-c3ccc(OCCN4CCN(C)CC4)c(Cl)c3C)c12)C(=O)O [Example 610, (2R)-3-{2-[(1-butyl-1H-pyrazol-5-yl)methoxy]phenyl}-2-{[(5Sa)-5-{3-chloro-2-methyl-4-[2-(4-methylpiperazin-1-yl)ethoxy]phenyl}-6-(1-methyl-1H-pyrazol-3-yl)thieno[2,3-d]pyrimidin-4-yl]oxy}propanoic acid] | – | 0.091 µM | 3.5e-09 M | –
20 | COc1ccccc1CC(Oc1ncnc2sc(-c3ccco3)c(-c3ccc(OC4CCNC4)c(Cl)c3C)c12)C(=O)O (single isomer, unassigned) [Example 305, (2R)-2-({(5Sa)-5-[3-chloro-2-methyl-4-((3S or R)-pyrrolidin-3-yloxy)phenyl]-6-(furan-2-yl)thieno[2,3-d]pyrimidin-4-yl}oxy)-3-(2-methoxyphenyl) propanoic acid] | 6.9e-08 M | 1.64 µM | – | –
